This is an account of results in US6645495B1, “Compositions of saponin adjuvants and excipients” (Antigenics, Inc., priority 1997, dated 2003).

For series [1] the following is noted: cited from earlier work.
The conditions of series [2]: in words; cited from earlier work.
Another series concerns sheep red blood cells. To be noted: cited from earlier work; for concentration causing hemolysis of sheep red blood cells: substantially pure saponin.
Series [3] in a line: aqueous shelf life of QS-21 solution at 4° C. (t90). The format is physicochemical. Here is the method:
Product stability is another concern for QS-21 containing compositions. The shelf life of a vaccine product is typically defined by the extent of time to reach a defined and acceptable low level of degradation (such as, the time to 10% degradation, also known as t90). Most commercial vaccine products have a shelf life of at least 18 to 24 months when stored in the refrigerator at 4° C. Adjuvants, which are essential components of vaccines, therefore must also have equally long shelf lives. However, the shelf life of a 50 μg/ml solution of QS-21 at pH 7.0 at 4° C. is reached in about 3 months. The reason for the short shelf life is because the ester bond of QS-21 is increasingly labile at increasing pH and because monomers of QS-21, as opposed to micelles, are subject to hydrolysis. The need to stabilize compositions of QS-21 adjuvant is significant.
This is representative of a typical clinical vaccine formulation containing QS-21 adjuvant (which consists of QS-21 at a concentration of 50-200 μg/ml in a-physiological pH buffer (pH 7.0-7.5)). […] Some improvement in stability, however, can be achieved by an increased concentration of the QS-21 product. […] But a concentrated QS-21 solution is not necessarily a practical method of administering a low dose of adjuvant. For example, administration of 25 μg from a 500 μg/ml solution would require the syringe withdrawal of 0.05 ml of dose. Additionally, some improved stability can be achieved by the use of a lower pH, i.e., at pH 6.0. However, a pH substantially lower than the physiological pH range may not be tolerated well or be compatible with the antigen.

In a further series the test system is Balb/c mice. In words: adjuvant potency: anti-OVA IgG2a response of immunized Balb/c mice (EIA). It counts as in vivo. Here is the method: FIGS. 1A and 1B show the effect of Polysorbate 40, Polysorbate 60, Polysorbate 80, and methyl-β-cyclodextrin on the immune response of Balb/c mice to OVA plus various doses of QS-21. Female mice (10/group, 8-10 weeks of age at the first immunization) were immunized subcutaneously with 5 μg of OVA and the indicated dose of QS-21 in either PBS alone or in 2 mg/ml excipient in PBS. A booster immunization was given by the same route at week 2. Sera was collected at week 4 for EIA analysis of the anti-OVA response. Mice were analyzed for OVA-specific IgG2a by a standard EIA analysis.

Another series concerns C57BL/6 mice. The note with it: antigen ovalbumin, cited from earlier work.
In series [4] the test system is New Zealand white rabbits. The note with it: cited from earlier work.
Series [5] is described as follows: earlier clinical trials: pain after injection of QS-21 in simple buffer. The format is in vivo, humans. To be noted: QS-21 in saline or PBS, some individuals. The source says:
This pain, described by most individuals as a burning pain, may be a secondary reaction correlated with the lytic effect of the QS-21 adjuvant. Patient pain is likewise an objectionable property for a composition.

On to QS-17, for which, in series [1], the “critical micellar concentration in phosphate buffered saline” value is ~0.03 % (w/v) and the “critical micellar concentration in water” value was “approximately 0.06 % (w/v)”. Moreover, in series [2], the immune adjuvant activity entry is “having immune adjuvant activity”. Further, the “concentration causing hemolysis of sheep red blood cells” value (shortened to “concentration causing hemolysis”) with sheep red blood cells was at least 25000 ng/mL.
On to QS-18, for which, in series [1], the “critical micellar concentration in phosphate buffered saline” value is reported as ~0.02 % (w/v) and the “critical micellar concentration in water” value is “approximately 0.04 % (w/v)”. Also, the immune adjuvant activity entry in series [2] is listed as “having immune adjuvant activity”. Further, the “concentration causing hemolysis” value with sheep red blood cells was at least 25000 ng/mL.
On to QS-21, for which the “t90 (shelf life, time to 10% degradation)” value in series [3] (50 μg/ml QS-21, pH 6.0) came to 679 days. The “t90 (shelf life, time to 10% degradation)” value in series [3] (50 μg/ml QS-21, pH 7.0, 4° C.) amounted to 94 days. Further, in series [3] (500 μg/ml QS-21, pH 7.0, 4° C.), the shelf life is given as 23.9 months and the “t90 (shelf life, time to 10% degradation)” value was determined as 717 days. Besides, the critical micellar concentration result in series [1] (in PBS (Soltysik 1995)) is “approximately 50 μg/ml”. For the same substance, in series [1], the “critical micellar concentration in phosphate buffered saline” value was ~0.02 % (w/v) and the “critical micellar concentration in water” value was “approximately 0.03 % (w/v)”. For the same substance, the “adjuvant activity (threshold dose) relative to PBS” value in the series with Balb/c mice (5 μg OVA s.c., boost week 2, sera week 4, 2 mg/ml Polysorbate 40, 60, 80 or methyl-β-cyclodextrin in PBS) was “active in all excipients within two fold of the threshold value determined in PBS”. Also, the optimum adjuvant dose with Balb/c mice (QS-21 dose, OVA-specific IgG2a, Balb/c mice) was at least 10 µg. In the series with Balb/c mice (at optimum adjuvant dose, excipients versus PBS), the “maximum level of antibody response” value is on record as “same maximum level of antibody response was reached”. Also, in series [2], the immune adjuvant activity result is on record as “having immune adjuvant activity”. Besides, the “threshold dose for antibody” value in the series on C57BL/6 mice (in PBS (Kensil 1993)) was 2.5 µg. Further, in the series with C57BL/6 mice (in PBS (Newman 1992)), the “threshold dose for CTL” value was 2.5 µg. The “creatine kinase (marker for muscle damage)” value in series [4] (after injection with QS-21 in saline or PBS) was “increased”. Further, the injection site histopathology entry in series [4] (intramuscular QS-21/saline solutions, some animals (Kensil 1995)) is recorded as “mild to moderate fibroblast damage or necrosis”. In addition, the pain after injection entry in series [5] is listed as “immediate, transient pain”. In addition, the “concentration at which hemolysis occurs” value in the series on sheep red blood cells (simple buffer such as saline or PBS (Kensil 1991)) is 5000 to 7000 ng/mL. In the series on sheep red blood cells, the “concentration causing hemolysis” value is at least 25000 ng/mL.
